Laboratory results published in patent EP4603105A1, “PHARMACEUTICAL COMPOSITION CONTAINING CYCLIC COMPOUND HAVING SELECTIVE KRAS INHIBITORY EFFECT AGAINST HRAS AND NRAS” (CHUGAI SEIYAKU KABUSHIKI KAISHA, priority 2022, dated 2024).
Where a SMILES comes first, the peptide text is derived from it. Bridges are numbered along the chain shown (N, C = ends). [ ]: non-standard residue; d: D form. The star is where a group is joined. hPhe(3-Cl-4-CF3) = N[C@@H](CCc1ccc(C(F)(F)F)c(Cl)c1)C(=O)O; NPrPhe(4-CF3) = CCCN[C@@H](Cc1ccc(C(F)(F)F)cc1)C(=O)O; NMeGly(cPent) = CN[C@H](C(=O)O)C1CCCC1; Hyp = O=C(O)[C@@H]1C[C@@H](O)CN1; NMeD = CN[C@@H](CC(=O)O)C(=O)O; NMeL = CN[C@@H](CC(C)C)C(=O)O; Morpholide = C1CN(*)CCO1; NMeA = CN[C@@H](C)C(=O)O; Ac5c = NC1(C(=O)O)CCCC1; Aze = O=C(O)[C@@H]1CCN1; Ac4c = NC1(C(=O)O)CCC1; NPrGly = CCCNCC(=O)O; Sar = CNCC(=O)O

How the values were obtained:
[1] = target: GDP-bound NRAS wild-type protein (Homo sapiens, UniProt P01111); experiment: Binding to NRAS by surface plasmon resonance (SPR), KD and KD ratio to KRAS
Sequence of GDP-bound NRAS wild-type protein (P01111 whole entry): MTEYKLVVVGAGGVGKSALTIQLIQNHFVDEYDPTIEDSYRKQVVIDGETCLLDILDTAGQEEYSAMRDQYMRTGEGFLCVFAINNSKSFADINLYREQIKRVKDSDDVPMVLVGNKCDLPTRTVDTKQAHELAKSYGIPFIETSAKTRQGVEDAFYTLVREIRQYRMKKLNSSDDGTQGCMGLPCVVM
Summary of the method: (§1)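 SPR, 30°C: Avi-biotin RAS·GDP captured via Biotin CAPture (~100–300 RU); running buffer HBS pH 7.4, 1 mM DTT, 10 mM MgCl2, 0.01% Tween 20, 10 µM GDP, 4% DMSO. Single-cycle kinetics, 100 µL/min, 75 s injections; 1:1 model → KD.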

[2] = target: HRAS wild-type protein (Homo sapiens, UniProt P01112); experiment: Binding to HRAS by surface plasmon resonance (SPR), KD and KD ratio to KRAS
Sequence of HRAS wild-type protein (P01112 whole entry): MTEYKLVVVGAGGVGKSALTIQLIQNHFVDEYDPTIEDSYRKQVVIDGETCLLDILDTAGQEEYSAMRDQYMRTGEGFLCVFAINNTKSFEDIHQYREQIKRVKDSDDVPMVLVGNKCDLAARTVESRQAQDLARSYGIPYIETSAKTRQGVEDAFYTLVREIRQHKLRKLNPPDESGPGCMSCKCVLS
Summary of the method: as §1

[3] = system: human lung cancer strain NCI-H441; format: cell-based
Summary of the method: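 Proliferation was scored by […] measured after the reagent was added to cultures kept at 37°C in 5% carbon dioxide.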

[4] = ratio of the KD value with respect to GDP-bound NRAS wild-type protein to the KD value with respect to KRAS
[5] = ratio of the KD value with respect to HRAS wild-type protein to the KD value with respect to KRAS
[6] = ratio of KD for GDP-bound NRAS wild-type protein to KD for KRAS
[7] = ratio of KD for HRAS wild-type protein to KD for KRAS
[8] = ratio of KD value for GDP-bound NRAS wild-type protein to KD value for KRAS (SPR)
[9] = ratio of KD value for HRAS wild-type protein to KD value for KRAS (SPR)

| Compound | NRAS /KRAS [1, 4] | HRAS /KRAS [2, 5] | IC50 [3] [nM] | NRAS /KRAS [1, 6] | HRAS /KRAS [2, 7] | NRAS /KRAS [1, 8] | HRAS /KRAS [2, 9] |
| --- | --- | --- | --- | --- | --- | --- | --- |
| CCCN1C(=O)[C@@H]2CCN2C(=O)[C@H](C)N(C)C(=O)[C@H]([C@@H](C)CC)NC(=O)[C@H](CC(C)C)N(C)C(=O)C[C@@H](C(=O)N2CCOCC2)N(C)C(=O)[C@H](C2CCCC2)N(C)C(=O)C2(CCC2)NC(=O)[C@@H]2C[C@@H](OCC)CN2C(=O)[C@H](CCc2ccc(C(F)(F)F)c(Cl)c2)NC(=O)CN(C)C(=O)[C@@H]1Cc1ccc(C(F)(F)F)cc1 [PP0406] ([NMeL]I[NMeA][Aze][NPrPhe(4-CF3)][Sar][hPhe(3-Cl-4-CF3)][Hyp](Et)[Ac4c][NMeGly(cPent)][NMeD]-Morpholide; lactam N-11) | C (A compound having a KD ratio of 0.1 or more and less than 3 is denoted as C) | B (a compound having 3 or more and less than 10 is denoted as B) | 2.5 |  |  |  |  |
| CCC(CC)[C@H]1C(=O)N(C)[C@H](C(=O)N(C)C)CC(=O)N(C)[C@@H](COC)C(=O)N[C@@H]([C@@H](C)CC)C(=O)N(C)CC(=O)N(C)[C@H]2C/C=C\CCN(C2=O)[C@@H](Cc2ccc(C)cc2)C(=O)N(C)CC(=O)N[C@@H](CCc2cc(F)c(C(F)(F)F)c(F)c2)C(=O)N2CC3(CC3)C[C@H]2C(=O)NC2(CC(C)(C)C2)C(=O)N1C [PP2963] |  |  | 13.4 | AA (a compound having 20 or more is denoted as AA) | A (a compound having 10 or more and less than 20 is denoted as A) |  |  |
| CCO[C@@H]1C[C@H]2C(=O)NC3(CC(C)(C)C3)C(=O)N(C)[C@@H](C(CC)CC)C(=O)N(C)[C@H](C(=O)N(C)C)CC(=O)N(C)[C@@H](CC3CCC3)C(=O)N[C@@H]([C@@H](C)CC)C(=O)N(C)CC(=O)N(C)[C@H]3C/C=C\CCN(C3=O)[C@@H](Cc3ccc(C(F)(F)F)cc3)C(=O)N(C)CC(=O)N[C@@H](CCc3cc(F)c(C(F)(F)F)c(F)c3)C(=O)N2C1 [PP2133] | AA (a compound having 20 or more is denoted as AA) | A (a compound having 10 or more and less than 20 is denoted as A) | 16.2 |  |  |  |  |
| CCCN1C(=O)[C@@H]2CCN2C(=O)[C@H](C)N(C)C(=O)[C@H]([C@@H](C)CC)NC(=O)[C@H](CC(C)C)N(C)C(=O)C[C@@H](C(=O)N2CCOCC2)N(C)C(=O)[C@H](C2CCCC2)N(C)C(=O)C2(CCCC2)NC(=O)[C@@H]2CCN2C(=O)[C@H](CCc2ccc(C(F)(F)F)c(Cl)c2)NC(=O)CN(C)C(=O)[C@@H]1Cc1ccc(C(F)(F)F)cc1 [PP0281] ([NMeL]I[NMeA][Aze][NPrPhe(4-CF3)][Sar][hPhe(3-Cl-4-CF3)][Aze][Ac5c][NMeGly(cPent)][NMeD]-Morpholide; lactam N-11) |  |  | 7.8 | C (A compound having a KD ratio of 0.1 or more and less than 3 is denoted as C) | C (A compound having a KD ratio of 0.1 or more and less than 3 is denoted as C) |  |  |
| CCO[C@@H]1C[C@H]2C(=O)NC3(CC(F)(F)C3)C(=O)N(C)[C@@H](C3CCCC3)C(=O)N(C)[C@H](C3CCC3)CC(=O)N(C)[C@@H](CC3CC3)C(=O)N[C@@H]([C@@H](C)CC)C(=O)N(C)CC(=O)N(C)[C@H]3C/C=C\CCN(C3=O)[C@@H](Cc3ccc(C(F)(F)F)cc3)C(=O)N(C)CC(=O)N[C@@H](CCc3cc(F)c(C(F)(F)F)c(F)c3)C(=O)N2C1 [PP1639] |  |  | 44.8 |  |  | A (a compound having 10 or more and less than 20 is denoted as A) | A (a compound having 10 or more and less than 20 is denoted as A) |
| CC[C@H](C)[C@@H]1NC(=O)[C@H](CC2CC2)N(C)C(=O)C[C@@H](C(=O)N(C)C)N(C)C(=O)[C@H](C2CCCC2)N(C)C(=O)C2(CCC2)NC(=O)[C@@H]2C[C@H](C)CN2C(=O)[C@H](CCc2cc(F)c(C(F)(F)F)c(F)c2)NC(=O)CN(C)C(=O)[C@H](Cc2ccc(C(F)(F)F)cc2)N2CC/C=C\C[C@@H](C2=O)N(C)C(=O)CN(C)C1=O [PP1499] |  |  | 5.5 |  |  | A (a compound having 10 or more and less than 20 is denoted as A) | B (a compound having 3 or more and less than 10 is denoted as B) |
| CC(C)C[C@H]1C(=O)N[C@@H](C2CCC2)C(=O)N(C)CC(=O)N(C)[C@H]2CCCCN(C2=O)[C@@H](Cc2ccc(C(F)(F)F)cc2)C(=O)N(C)CC(=O)N[C@@H](CCc2cc(F)c(C(F)(F)F)c(F)c2)C(=O)N2CCC[C@H]2C(=O)NC2(CCCC2)C(=O)N(C)[C@@H](C2CCCC2)C(=O)N(C)[C@H](C(=O)N2CCOCC2)CC(=O)N1C [PP0596] | B (a compound having 3 or more and less than 10 is denoted as B) | B (a compound having 3 or more and less than 10 is denoted as B) | 8.3 |  |  |  |  |
| CCC[C@H]1C(=O)N[C@@H]([C@@H](C)CC)C(=O)N(C)CC(=O)N(C)[C@H]2C/C=C\CCN(C2=O)[C@@H](Cc2ccc(C)cc2)C(=O)N(C)CC(=O)N[C@@H](CCc2cc(Cl)c3c(ccn3C)c2)C(=O)N2C[C@H](OCC)C[C@H]2C(=O)NC2(CC(C)(C)C2)C(=O)N(C)[C@@H](C(CC)CC)C(=O)N(C)[C@H](C(=O)N(C)C)CC(=O)N1C [PP2898] |  |  | 98.1 | A (a compound having 10 or more and less than 20 is denoted as A) | A (a compound having 10 or more and less than 20 is denoted as A) |  |  |
| CCCOC[C@H]1C(=O)N[C@@H]([C@@H](C)CC)C(=O)N2CCC[C@H]2C(=O)N(C)[C@H]2C/C=C\CCN(C2=O)[C@@H](Cc2ccc(C)cc2)C(=O)N(C)CC(=O)N[C@@H](CCc2ccc(C(F)(F)F)c(OC)c2)C(=O)N2C[C@H](OCC)C[C@H]2C(=O)N(C)C2(CCC2)C(=O)N(C)[C@@H](C(CC)CC)C(=O)N(C)[C@H](C(=O)N(C)C)CC(=O)N1C [PP2331] | AA (a compound having 20 or more is denoted as AA) | A (a compound having 10 or more and less than 20 is denoted as A) | 11.8 |  |  |  |  |
| CCC[C@H]1C(=O)N[C@@H]([C@@H](C)CC)C(=O)N2CCC[C@H]2C(=O)N(C)[C@H]2C/C=C\CCN(C2=O)[C@@H](CC2CCC(F)(F)CC2)C(=O)N(C)CC(=O)N[C@@H](CCc2ccc(C(F)(F)F)c(OC)c2)C(=O)N2C[C@H](OCC)C[C@H]2C(=O)N(C)C2(CCC2)C(=O)N(C)[C@@H](C(CC)CC)C(=O)N(C)[C@H](C(=O)N(C)C)CC(=O)N1C [PP2353] | A (a compound having 10 or more and less than 20 is denoted as A) | A (a compound having 10 or more and less than 20 is denoted as A) | 68.8 |  |  |  |  |
| CCC(CC)[C@H]1C(=O)N(C)[C@H](C(=O)N(C)C)CC(=O)N(C)[C@@H](COC)C(=O)N[C@@H]([C@@H](C)CC)C(=O)N(C)CC(=O)N(C)[C@H]2C/C=C\CCN(C2=O)[C@@H](Cc2ccc(C(F)(F)F)cc2)C(=O)N(C)CC(=O)N[C@@H](CCc2cc(F)c(C(F)(F)F)c(F)c2)C(=O)N2CCCCC[C@H]2C(=O)NC2(CC(C)(C)C2)C(=O)N1C [PP3030] |  |  | 22.4 | AA (a compound having 20 or more is denoted as AA) | A (a compound having 10 or more and less than 20 is denoted as A) |  |  |
| C=CCC[C@H]1C(=O)N[C@@H]([C@@H](C)CC)C(=O)N(C)CC(=O)N(C)[C@H]2CCCCN(C2=O)[C@@H](Cc2ccc(C(F)(F)F)cc2)C(=O)N(C)CC(=O)N[C@@H](CCc2cc(F)c(C(F)(F)F)c(F)c2)C(=O)N2C[C@H](OCC)C[C@H]2C(=O)N[C@](C)(CC=C)C(=O)N(C)[C@@H](C2CCCC2)C(=O)N(C)[C@H](C(=O)N2CCOCC2)CC(=O)N1C [PP0875] |  |  | 4.8 | C (A compound having a KD ratio of 0.1 or more and less than 3 is denoted as C) | B (a compound having 3 or more and less than 10 is denoted as B) |  |  |
| CCCN1CC(=O)NC2(CCCC2)C(=O)N(C)[C@@H](C2CCCC2)C(=O)N(C)[C@H](C(=O)N2CCOCC2)CC(=O)N(C)[C@@H](CC(C)C)C(=O)N[C@@H]([C@@H](C)CC)C(=O)N(C)CC(=O)N(C)CC(=O)N(CCC)[C@@H](Cc2ccc(C(F)(F)F)cc2)C(=O)N(C)CC(=O)N[C@@H](CCc2ccc(C(F)(F)F)c(Cl)c2)C1=O [PP0267] ([NMeL]I[Sar][Sar][NPrPhe(4-CF3)][Sar][hPhe(3-Cl-4-CF3)][NPrGly][Ac5c][NMeGly(cPent)][NMeD]-Morpholide; lactam N-11) |  |  | 38.2 | B (a compound having 3 or more and less than 10 is denoted as B) | B (a compound having 3 or more and less than 10 is denoted as B) |  |  |
| CCCOC[C@H]1C(=O)N[C@@H]([C@@H](C)CC)C(=O)N(C)CC(=O)N(C)[C@H]2C/C=C\CCN(C2=O)[C@@H](Cc2ccc(C(F)(F)F)cc2)C(=O)N(C)CC(=O)N[C@@H](CCc2cc(F)c(C(F)(F)F)c(F)c2)C(=O)N2C[C@H](OCC)C[C@H]2C(=O)NC2(CCC2)C(=O)N(C)[C@@H](C2CCCC2)C(=O)N(C)[C@H](C(=O)N(C)CC)CC(=O)N1C [PP1569] |  |  | 2.8 |  |  | A (a compound having 10 or more and less than 20 is denoted as A) | B (a compound having 3 or more and less than 10 is denoted as B) |
